Data published in patent US7615643B2 (SmithKline Beecham Corporation, priority 2006, dated 2009).
Structures can show the parent of a compound that is named as a salt.

Target: T1, PLK1 (Homo sapiens, UniProt P53350)
T1 construct: PLK kinase domain (amino acids 21-346 preceded by MKKGHHHHHHD); made in house; host or cells: baculovirus infected T. ni cells
Test: Assay for inhibition of PLK1 (SPA kinase assay)
Format: biochemical
Conditions: 1 μM ATP, 2 nM PLK1 kinase domain, read-out: PLK1 pIC50 (converted)
Protocol: I. Assay for Inhibition of PLK1
A. Preparation of 6× N-terminal His-tagged PLK Kinase Domain
6× N-terminal His-tagged PLK kinase domain (amino acids 21-346 preceded by MKKGHHHHHHD) SEQ ID: No. 1. was prepared from baculovirus infected T. ni cells under polyhedrin promoter control. All procedures were performed at 4° C. Cells were lysed In 50 mM HEPES, 200 mM NaCl, 50 mM imidazole, 5% glycerol; pH 7.5. The homogenate was centrifuged at 14K rpm in a SLA-1500 rotor for 1 hr and the supernatant filtered through a 1.2 micron filter. The supernatant was loaded onto a Nickel chelating Sepharose (Amersham Pharmacia) column and washed with lysis buffer. Protein was eluted using 20%, 30% and 100% buffer B steps where buffer B was 50 mM HEPES, 200 mM NaCl, 300 mM imidazole, 5% glycerol; pH 7.5. Fractions containing PLK were determined by SDS-PAGE. Fractions containing PLK were diluted five-fold with 50 mM HEPES, 1 mM DTT, 5% glycerol; pH 7.5, then loaded on an SP Sepharose (Amersham Pharmacia) column. After washing the column with 50 mM HEPES, 1 mM DTT, 5% glycerol; pH 7.5, PLK was step eluted with 50 mM HEPES, 1 mM DTT, 500 mM NaCl; 5% glycerol; pH 7.5. PLK was concentrated using a 10 kDa molecular weight cutoff membrane and then loaded onto a Superdex 200 gel filtration (Amersham Pharmacia) column equilibrated in 25 mM HEPES, 1 mM DTT, 500 mM NaCl, 5% glycerol; pH 7.5. Fractions containing PLK were determined by SDS-PAGE. PLK was pooled, aliquoted and stored at −80° C. Samples were quality controlled using mass spectrometry, N-terminal sequencing and amino acid analysis.
B. Enzyme Activity +/− Inhibitors was Determined as Follows:
All measurements were obtained under conditions where signal production increased linearly with time and enzyme. Test compounds were added to white 384-well assay plates (0.1 μL for 10 μL and some 20 μL assays, 1 μL for some 20 μL assays) at variable known concentrations in 100% DMSO. DMSO (1-5% final, as appropriate) and EDTA (65 mM in reaction) were used as controls. Reaction Mix was prepared as follows at 22° C.: • 25 mM HEPES, pH 7.2 • 15 mM MgCl2 • 1 μM ATP • 0.05 μCi/well ^33P-γ ATP (10 Ci/mMol) • 1 μM substrate peptide (Biotin-Ahx-SFNDTLDFD) SEQ ID:No. 2. • 0.15 mg/mL BSA • 1 mM DTT • 2 nM PLK1 kinase domain (added last)
Reaction Mix (10 or 20 μL) was quickly added to each well immediately following addition of enzyme via automated liquid handlers and incubated 1-1.5 h at 22° C. The 20 μL enzymatic reactions were stopped with 50 μL of stop mix (50 mM EDTA, 4.0 mg/mL Streptavidin SPA beads in Standard Dulbecco's PBS (without Mg^2+ and Ca^2+), 50 μM ATP) per well. The 10 μL reactions were stopped with 10 μL of stop mix (50 mM EDTA, 3.0 mg/mL Streptavidin-coupled SPA imaging Beads (“LeadSeeker”) in Standard Dulbecco's PBS (without Mg^2+ and Ca^2+), 50 μM ATP) per well. Plates were sealed with clear plastic seals, spun at 500×g for 1 min or settled overnight, and counted in Packard TopCount for 30 seconds/well (regular SPA) or imaged using a Viewlux imager (LeadSeeker SPA). Signal above background (EDTA controls) was converted to percent Inhibition relative to that obtained in control (DMSO-only) wells.

T1 sequence (P53350 21-346): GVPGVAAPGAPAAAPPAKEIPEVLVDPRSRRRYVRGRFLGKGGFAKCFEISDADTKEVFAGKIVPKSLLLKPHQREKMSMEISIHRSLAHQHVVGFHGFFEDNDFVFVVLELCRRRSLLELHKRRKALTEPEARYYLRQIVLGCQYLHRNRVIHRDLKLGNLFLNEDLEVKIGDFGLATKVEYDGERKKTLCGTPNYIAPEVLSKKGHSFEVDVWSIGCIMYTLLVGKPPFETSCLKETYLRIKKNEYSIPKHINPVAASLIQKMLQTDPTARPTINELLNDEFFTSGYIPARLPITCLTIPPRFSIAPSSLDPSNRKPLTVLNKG

Row | IC50 | SMILES
1 | < 100 nM | CCN1CCC(Oc2cccc([C@@H](C)Oc3cc(-n4cnc5cc(Cl)ccc54)sc3C(N)=O)c2Cl)CC1 [Example 19, 5-(5-Chloro-1H-benzimidazol-1-yl)-3-[((1R)-1-{2-chloro-3-[(1-ethyl-4-piperidinyl)oxy]phenyl}ethyl)oxy]-2-thiophenecarboxamide]
2 | < 100 nM | C[C@@H](Oc1cc(-n2cnc3cc(Cl)ccc32)sc1C(N)=O)c1cccc(OC2CCN(CCO)CC2)c1Cl [Example 20, 5-(5-Chloro-1H-benzimidazol-1-yl)-3-{[(1R)-1-(2-chloro-3-{[1-(2-hydroxyethyl)-4-piperidinyl]oxy}phenyl)ethyl]oxy}-2-thiophenecarboxamide]
3 | < 100 nM | C[C@@H](Oc1cc(-n2cnc3cc(Cl)ccc32)sc1C(N)=O)c1cccc(OC2CCN(CCF)CC2)c1Cl [Example 21, 5-(5-Chloro-1H-benzimidazol-1-yl)-3-{[(1R)-1-(2-chloro-3-{[1-(2-fluoroethyl)-4-piperidinyl]oxy}phenyl)ethyl]oxy}-2-thiophenecarboxamide]
4 | < 100 nM | C[C@@H](Oc1cc(-n2cnc3cc(Cl)ccc32)sc1C(N)=O)c1cccc(OC2CCN(CCN)CC2)c1Cl [Example 22, 3-{[(1R)-1-(3-{[1-(2-aminoethyl)-4-piperidinyl]oxy}-2-chlorophenyl)ethyl]oxy}-5-(5-chloro-1H-benzimidazol-1-yl)-2-thiophenecarboxamide]
5 | < 100 nM | CC(C)N1CCC(Oc2cccc([C@@H](C)Oc3cc(-n4cnc5cc(Cl)ccc54)sc3C(N)=O)c2Cl)CC1 [Example 24, 5-(5-Chloro-1H-benzimidazol-1-yl)-3-{[(1R)-1-(2-chloro-3-{[1-(1-methylethyl)-4-piperidinyl]oxy}phenyl)ethyl]oxy}-2-thiophenecarboxamide]
6 | < 100 nM | C[C@@H](Oc1cc(-n2cnc3cc(Cl)ccc32)sc1C(N)=O)c1cccc(OCCN2CCOCC2)c1Cl [Example 26, 5-(5-Chloro-1H-benzimidazol-1-yl)-3-{[(1R)-1-(2-chloro-3-{[2-(4-morpholinyl)ethyl]oxy}phenyl)ethyl]oxy}-2-thiophenecarboxamide]
7 | < 100 nM | C[C@@H](Oc1cc(-n2cnc3cc(Cl)ccc32)sc1C(N)=O)c1cccc(OC[C@H]2CNCCO2)c1Cl [Example 27, 5-(5-Chloro-1H-benzimidazol-1-yl)-3-{[(1R)-1-(2-chloro-3-{[(2R)-2-morpholinylmethyl]oxy}phenyl)ethyl]oxy}-2-thiophenecarboxamide]
8 | < 100 nM | C[C@@H](Oc1cc(-n2cnc3cc(Cl)ccc32)sc1C(N)=O)c1cccc(OC[C@@H]2CNCCO2)c1Cl [Example 28, 5-(5-Chloro-1H-benzimidazol-1-yl)-3-{[(1R)-1-(2-chloro-3-{[(2S)-2-morpholinylmethyl]oxy}phenyl)ethyl]oxy}-2-thiophenecarboxamide]

The remaining lines, values behind:

Row | SMILES | IC50
9 | C[C@@H](Oc1cc(-n2cnc3ccccc32)sc1C(N)=O)c1cccc(OC2CCNCC2)c1Cl [Example 14, 5-(1H-Benzimidazol-1-yl)-3-({(1R)-1-[2-chloro-3-(4-piperidinyloxy)phenyl]ethyl}oxy)-2-thiophenecarboxamide] | < 100 nM
10 | C[C@@H](Oc1cc(-n2cnc3ccccc32)sc1C(N)=O)c1cccc(OCCN2CCOCC2)c1Cl [Example 15, 5-(1H-benzimidazol-1-yl)-3-{[(1R)-1-(2-chloro-3-{[2-(4-morpholinyl)ethyl]oxy}phenyl)ethyl]oxy}-2-thiophenecarboxamide] | < 100 nM
11 | C[C@@H](Oc1cc(-n2cnc3ccccc32)sc1C(N)=O)c1cccc(OCCN2CCNCC2)c1Cl [Example 16, 5-(1H-benzimidazol-1-yl)-3-{[(1R)-1-(2-chloro-3-{[2-(1-piperazinyl)ethyl]oxy}phenyl)ethyl]oxy}-2-thiophenecarboxamide] | < 100 nM
12 | C[C@@H](Oc1cc(-n2cnc3ccccc32)sc1C(N)=O)c1cccc(OCCN2CCN(C)CC2)c1Cl [Example 17, 5-(1H-benzimidazol-1-yl)-3-{[(1R)-1-(2-chloro-3-{[2-(4-methyl-1-piperazinyl)ethyl]oxy}phenyl)ethyl]ocy}-2-thiophenecarboxamide] | < 100 nM
13 | C[C@@H](Oc1cc(-n2cnc3cc(-c4ccc(NC5CCN(C)CC5)nc4)ccc32)sc1C(N)=O)c1cccc(OC2CCN(C)CC2)c1Cl [Example 18, 3-[((1R)-1-{2-chloro-3-[(1-methyl-4-piperidinyl)oxy]phenyl}ethyl)oxy]-5-(5-{6-[(1-methyl-4-piperidinyl)amino]-3-pyridinyl}-1H-benzimidazol-1-yl)-2-thiophenecarboxamide] | < 100 nM
14 | C[C@@H](Oc1cc(-n2cnc3cc(Cl)ccc32)sc1C(N)=O)c1cccc(OC2CCN(CCS(C)(=O)=O)CC2)c1Cl [Example 23, 5-(5-Chloro-1H-benzimidazol-1-yl)-3-({(1R)-1-[2-chloro-3-({1-[2-(methylsulfonyl)ethyl]-4-piperidinyl}oxy)phenyl]ethyl}oxy)-2-thiophenecarboxamide] | < 100 nM
15 | C[C@@H](Oc1cc(-n2cnc3cc(-c4cnn(C)c4)ccc32)sc1C(N)=O)c1cccc(OCCN2CCOCC2)c1Cl [Example 25, 3-{[(1R)-1-(2-chloro-3-{[2-(4-morpholinyl)ethyl]oxy}phenyl)ethyl]oxy}-5-[5-(1-methyl-1H-pyrazol-4-yl)-1H-benzimidazol-1-yl]-2-thiophenecarboxamide] | < 100 nM
16 | C[C@@H](Oc1cc(-n2cnc3cc(-c4cnn(C)c4)ccc32)sc1C(N)=O)c1cccc(OC2CCN(CCF)CC2)c1Cl [Example 29, 3-{[(1R)-1-(2-Chloro-3-{[1-(2-fluoroethyl)-4-piperidinyl]oxy}phenyl)ethyl]oxy}-5-[5-(1-methyl-1H-pyrazol-4-yl)-1H-benzimidazol-1-yl]-2-thiophenecarboxamide] | < 100 nM
17 | C[C@@H](Oc1cc(-n2cnc3cc(-c4cnn(C)c4)ccc32)sc1C(N)=O)c1cccc(OC2CCN(CCC(F)(F)F)CC2)c1Cl [Example 30, 3-{[(1R)-1-(2-chloro-3-{[1-(3,3,3-trifluoropropyl)-4-piperidinyl]oxy}phenyl)ethyl]oxy}-5-[5-(1-methyl-1H-pyrazol-4-yl)-1H-benzimidazol-1-yl]-2-thiopenecarboxamide] | < 100 nM
18 | C[C@@H](Oc1cc(-n2cnc3cc(-c4cnn(C)c4)ccc32)sc1C(N)=O)c1cccc(OC2CCN(CCS(C)(=O)=O)CC2)c1Cl [Example 31, 3-({(1R)-1-[2-Chloro-3-({1-[2-(methylsulfonyl)ethyl]-4-piperldinyl}oxy)phenyl]ethyl}oxy)-5-[5-(1-methyl-1H-pyrazol-4-yl)-1H-benzimidazol-1-yl]-2-thiophenecarboxamide] | < 100 nM
19 | C[C@@H](Oc1cc(-n2cnc3cc(Cl)ccc32)sc1C(N)=O)c1ccc(F)c(OC2CCN(C)CC2)c1Cl [Example 32, 5-(5-Chloro-1H-benzimidazol-1-yl)-3-[((1R)-1-{2-chloro-4-fluoro-3-[(1-methyl-4-piperidinyl)oxy]phenyl}ethyl)oxy]-2-thiophenecarboxamide] | < 100 nM
20 | C[C@@H](Oc1cc(-n2cnc3cc(-c4cnn(C)c4)ccc32)sc1C(N)=O)c1ccc(F)c(OC2CCNCC2)c1Cl [Example 33, 3-({(1R)-1-[2-Chloro-4-fluoro-3-(4-piperidinyloxy)phenyl]ethyl}oxy)-5-[5-(1-methyl-1H-pyrazol-4-yl)-1H-benzimidazol-1-yl]-2-thiophenecarboxamide] | < 100 nM
21 | C[C@@H](Oc1cc(-n2cnc3cc(-c4cnn(C)c4)ccc32)sc1C(N)=O)c1ccc(F)c(OC2CCN(C)CC2)c1Cl [Example 34, 3-[((1R)-1-{2-Chloro-4-fluoro-3-[(1-methyl-4-piperidinyl)oxy]phenyl}ethyl)oxy]-5-[5-(1-methyl-1H-pyrazol-4-yl)-1H-benzimidazol-1-yl]-2-thiophenecarboxamide trifluoroacetate] | < 100 nM
